Experimental data as given in article PMC9505826, “A Peptide Inhibitor of the Human Cytomegalovirus Core Nuclear Egress Complex” (Pharmaceuticals, 2022).

Key:
HCMV AD169 = format: cell-based, human cytomegalovirus (HCMV strain AD169); conditions: for effect on HCMV infection (in words): HFFs infected with HCMV AD169, qPCR of supernatants, concentrations up to 10 µM; for EC50: HFFs infected with HCMV AD169, MOI 0.1, peptides refreshed at 2, 5 and 7 d p.i., viral genome equivalents in supernatants at 8 d p.i. by qPCR, % of DMSO control, ± standard deviation, at least three independent experiments, read-out: EC50, antiviral effect
Protocol: Primary human foreskin fibroblasts (HFFs) were cultivated in minimal essential medium (MEM). Cell culture media were supplemented with 1× GlutaMAXTM (35050038, Thermo Fisher Scientific), […] gentamicin and 10% fetal bovine serum (FBS, F7524, Sigma Aldrich). All cells were incubated at 37 °C, 5% CO2 and 80% humidity. For infection with human cytomegalovirus (HCMV strain AD169), 2 × 10^5 HFFs were seeded in 12-well plates for 1 day (d) prior to infection at a multiplicity of infection (MOI) of 0.1. After 90 min of viral absorption, cells were incubated with peptides in the culture media media, which was supplemented with 2.5% FBS, 1× GlutaMAX^TM and 10 µg/mL gentamicin, at the indicated concentrations at 37 °C for 4–8 days. Viral supernatants were collected at 4, 6 and 8 days post-infection (d.p.i.).
HFFs were seeded in 12-well plates, used for HCMV infection at a MOI of 0.1 and treated with the indicated concentrations of each peptide. […] The supernatants were centrifuged at 1500× g and digested with proteinase K at 56 °C for 1 h to release viral particles. The reactions were stopped at 95 °C for 5 min. The amount of extracellular viral genomic loads was assessed in […] of each sample by real-time PCR (TaqMan-PCR). Two primers, namely 5′CMV ([…]) and 3′CMV ([…]), which anneal to a sequence within the major immediate early gene region of HCMV, were obtained to amplify and quantify the viral genome. In addition, a FAM/TAMRA-labeled probe was used for detection. The viral load of a sample treated with DMSO only served as a negative control. HCMV genome equivalents from peptide-treated viral supernatants were calculated as % of the negative control.

[1] = target: T1, HCMV pUL50–pUL53 interaction (Human cytomegalovirus, UniProt P16791); assay: pUL50-pUL53 inhibition assay (plate-based, anti-His-HRP detection); format: binding; conditions: peptide serial dilutions starting at 10 µM
T1 construct: Recombinant pUL50 and pUL53 were produced and purified as previously described; made in house
T1 sequence (P16791 1-175): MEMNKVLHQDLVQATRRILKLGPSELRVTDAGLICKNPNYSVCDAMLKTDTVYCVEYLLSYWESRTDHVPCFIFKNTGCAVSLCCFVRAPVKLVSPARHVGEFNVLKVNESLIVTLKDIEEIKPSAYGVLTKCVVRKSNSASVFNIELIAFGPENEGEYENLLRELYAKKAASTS
Protocol: Inhibition assay. Recombinant pUL50 and pUL53 were produced and purified as previously described. High binding Immulon microtiter plates were coated with 100 µL pUL53 (1 µg/mL) in sodium carbonate buffer pH 9.5, overnight at 4 °C. After blocking with 200 µL 1% BSA in 0.1 M phosphate buffer, pH 7.2, for two hours, plates were incubated with 50 µL peptide in serial dilutions, starting at 10 µM, together with 50 µL His-tagged pUL50 (0.78 µg/mL) for two and a half hours. His-tagged pUL50 was detected using anti-His-HRP (Merck, Darmstadt, Germany, 1:100,000). All proteins and antibodies were in 0.1 M phosphate buffer, pH 7.2, containing 0.1% BSA and 0.01% Tween 20. Plates were washed four times with 0.01% Tween 20 in 0.1 M phosphate buffer, pH 7.2, after each incubation step. Plates were developed with o-phenylenediamine (OPD) (1 mg/mL) in the presence of 0.03% H2O2 for approximately 5 min in the dark. After the reaction was stopped with 50 µL 2 M H2SO4, absorbance was read at 492 nm. IC50 values were determined from the % inhibition data using the program GraphPad. Inhibition was calculated according to the following formula:% Inhibition = [1 − (Asample − Ablank1)/(A100% − Ablank2)] × 100 in which “100%” is a sample without inhibitor, “blank1” is a sample without pUL53, and “blank2” is a sample without pUL53 and without inhibitor.

HFF cells = assay: Neutral Red cytotoxicity assay; format: cell-based, human; conditions: peptides 0.008 µM to 100 µM, refreshed on day 5, read on day 7 of peptide treatment
Protocol: HFF cells were cultivated in 96-well plate with a density of 1.35 × 10^4 cells per well and incubated at 37 °C for 24 h. The cultured HFF cells were treated with peptides, at concentrations ranging from 0.008 µM to 100 µM, and incubated at 37 °C. On day 5, peptides were refreshed in the culture media and incubation was continued until day 7. A sample without compound (DMSO) served as a negative control, and a sample with 1 µM staurosporine (STP) as a positive control. On day seven, neutral red solution (40 µg/mL, Sigma Aldrich, N2889) was added to cultivated cells and incubated at 37 °C for […], followed by addition of destaining solution (ethanol/water/acetic acid, 50:49:1). Fluorescence was read at excitation/emission at 560/630 nm to quantify the uptake of neutral red.

Row | SMILES | effect on HCMV infection (in words) (HCMV AD169) | inhibitory effect on the pUL50-pUL53 interaction (in words) [1] | EC50 (HCMV AD169) [µM] | CC50, cytotoxic effect (HFF cells) [µM]
1 | CC(=O)N[C@@H](CCCNC(=N)N)C(=O)N[C@@H](CO)C(=O)N[C@@H](CC(C)C)C(=O)N[C@@H](CC(C)C)C(=O)N[C@@H](CCCNC(=N)N)C(=O)N[C@@H](CCCCN)C(=O)N[C@@H](CCCNC(=N)N)C(=O)N[C@@H](CCCNC(=N)N)C(=O)N[C@@H](CCC(N)=O)C(=O)N[C@@H](CCCNC(=N)N)C(=O)NCCOCCOCC(=O)N[C@@H](Cc1ccc(O)cc1)C(=O)NCC(=O)N[C@@H](CCCNC(=N)N)C(=O)N[C@@H](CCCCN)C(=O)N[C@@H](CCCCN)C(=O)N[C@@H](CCCNC(=N)N)C(=O)N[C@@H](CCCNC(=N)N)C(=O)N[C@@H](CCC(N)=O)C(=O)N[C@@H](CCCNC(=N)N)C(=O)N[C@@H](CCCNC(=N)N)C(=O)N[C@@H](CCCNC(=N)N)C(=O)N1CCC[C@H]1C(=O)N1CCC[C@H]1C(N)=O [NLS-CPP] | no significant effect | completely inactive |  | 
2 | CC[C@H](C)[C@H](NC(=O)[C@H](C)NC(=O)[C@H](CCSC)NC(=O)[C@H](CCCCN)NC(=O)[C@H](CCSC)NC(=O)[C@H](CCSC)NC(=O)[C@H](CC(N)=O)NC(=O)[C@H](CC(C)C)NC(=O)[C@H](Cc1ccc(O)cc1)NC(=O)[C@H](CCCCN)NC(=O)[C@H](CC(C)C)NC(=O)[C@H](CCC(=O)O)NC(=O)[C@H](CC(C)C)NC(=O)[C@H](CCC(=O)O)NC(=O)[C@@H]1CCCN1C(=O)[C@H](Cc1c[nH]cn1)NC(=O)[C@H](CCC(=O)O)NC(=O)[C@H](CCCNC(=N)N)NC(=O)[C@H](Cc1ccccc1)NC(=O)[C@@H](NC(=O)[C@H](CC(=O)O)NC(=O)[C@H](Cc1c[nH]cn1)NC(=O)[C@H](CC(C)C)NC(=O)[C@H](CC(=O)O)NC(=O)[C@H](Cc1c[nH]cn1)NC(=O)[C@H](CC(C)C)NC(=O)[C@@H](NC(=O)[C@H](CC(C)C)NC(C)=O)[C@@H](C)O)[C@@H](C)CC)C(=O)N[C@H](C(N)=O)[C@@H](C)O [Hook peptide] | no significant effect |  | > 10 | >100
3 | CC[C@H](C)[C@H](NC(=O)[C@H](C)NC(=O)[C@H](CCSC)NC(=O)[C@H](CCCCN)NC(=O)[C@H](CCSC)NC(=O)[C@H](CCSC)NC(=O)[C@H](CC(N)=O)NC(=O)[C@H](CC(C)C)NC(=O)[C@H](Cc1ccc(O)cc1)NC(=O)[C@H](CCCCN)NC(=O)[C@H](CC(C)C)NC(=O)[C@H](CCC(=O)O)NC(=O)[C@H](CC(C)C)NC(=O)[C@H](CCC(=O)O)NC(=O)[C@@H]1CCCN1C(=O)[C@H](Cc1c[nH]cn1)NC(=O)[C@H](CCC(=O)O)NC(=O)[C@H](CCCNC(=N)N)NC(=O)[C@H](Cc1ccccc1)NC(=O)[C@@H](NC(=O)[C@H](CC(=O)O)NC(=O)[C@H](Cc1c[nH]cn1)NC(=O)[C@H](CC(C)C)NC(=O)[C@H](CC(=O)O)NC(=O)[C@H](Cc1c[nH]cn1)NC(=O)[C@H](CC(C)C)NC(=O)[C@@H](NC(=O)[C@H](CC(C)C)NC(=O)COCCOCCNC(=O)[C@@H]1CCCN1C(=O)[C@@H]1CCCN1C(=O)[C@H](CCCNC(=N)N)NC(=O)[C@H](CCCNC(=N)N)NC(=O)[C@H](CCCNC(=N)N)NC(=O)[C@H](CCC(N)=O)NC(=O)[C@H](CCCNC(=N)N)NC(=O)[C@H](CCCNC(=N)N)NC(=O)[C@H](CCCCN)NC(=O)[C@H](CCCCN)NC(=O)[C@H](CCCNC(=N)N)NC(=O)CNC(=O)[C@H](Cc1ccc(O)cc1)NC(=O)COCCOCCNC(=O)[C@H](CCCNC(=N)N)NC(=O)[C@H](CCC(N)=O)NC(=O)[C@H](CCCNC(=N)N)NC(=O)[C@H](CCCNC(=N)N)NC(=O)[C@H](CCCCN)NC(=O)[C@H](CCCNC(=N)N)NC(=O)[C@H](CC(C)C)NC(=O)[C@H](CC(C)C)NC(=O)[C@H](CO)NC(=O)[C@H](CCCNC(=N)N)NC(C)=O)[C@@H](C)O)[C@@H](C)CC)C(=O)N[C@H](C(N)=O)[C@@H](C)O [NLS-CPP-Hook] |  |  | 5.6 ± 0.78 | 44.2 ± 6.9
